Assay results from PubChem BioAssay AID463206 (Broad Institute, 2010).
Activity calls are given as the source filed them.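 The calls were made as follows: active = caspase luminescence falls with dose and the half-maximal concentration AC50 from the fitted curve is at or below a set limit; inconclusive = flat fit at 30 to 70% signal loss, or invalid fit; inactive = AC50 above the limit, or signal rises instead.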

system: INS-1E cytokine-induced caspase-3/7, Caspase-Glo luminescence, 48 h; experiment: inhibitors of cytokine-induced caspase-3/7 activity, dose response, orthogonal assay for beta-cell apoptosis protection project, INS-1E rat cells, luminescence (AID 463206)

| SMILES | AC50 |
| --- | --- |
| CCc1ccc(-c2cc(C(F)(F)F)n3nc(C(=O)Nc4cnn(Cc5ccc(C)cc5)c4)cc3n2)s1 | > 26 µM (inactive) |
| COc1cccc(C(=O)Oc2c(CN3CCOCC3)cc(Cl)c3cccnc23)c1 | > 26 µM (inactive) |
| O=C1C(C2=NC(c3ccccn3)C3C(=O)N(c4ccc(OC(F)(F)F)cc4)C(=O)C23)=C(O)c2ccccc21 (stereo not given) | > 26 µM (inactive) |
| CC(C)(C)C1C/C(=C/c2ccccn2)C(=O)/C(=C/c2ccccn2)C1 (stereo not given) | > 26 µM (inactive) |
| Cc1cc(-c2ccccc2)n(-c2cc(N/N=C/c3ccccc3O)ncn2)n1 | > 26 µM (inactive) |
| O=C(Nc1ccc(Cl)cc1)c1nc[nH]c1C(=O)NCCN(CCNC(=O)c1[nH]cnc1C(=O)Nc1ccc(Cl)cc1)CCNC(=O)c1[nH]cnc1C(=O)Nc1ccc(Cl)cc1 | > 26 µM (inactive) |
| Cc1ccc(C(=O)Nc2nc(-c3ccccn3)cs2)s1 | > 26 µM (inactive) |
| COc1ccc2cc(C(=O)N/N=C/c3sc4ccccc4c3O)ccc2c1 | > 26 µM (inactive) |
| N#Cc1ccc(-c2csc(NNC(=O)c3ccccc3)n2)cc1 | > 26 µM (inactive) |
| O=C(NNC(=O)c1ccccc1OCc1ccc(F)cc1)c1ccccc1O | > 26 µM (inactive) |
| CCOC(=O)N1CCN(S(=O)(=O)c2ccc(C(=O)NNc3nc4cc(C)cc(C)c4s3)cc2)CC1 | > 26 µM (inactive) |
| COc1ccc(S(=O)(=O)N2CCNCC2)cc1OC | > 26 µM (inactive) |
| Cc1ccc(S(=O)(=O)Nc2ccc(O)c3ccccc23)c(C)c1 | > 26 µM (inactive) |
| CCCCCc1nc2c(c(=O)c3ccccc3n2C)c(=O)n1C1CCCCCC1 | > 26 µM (inactive) |
| O=C(c1ccccc1)C(CN1CCCC1)c1ccccc1 (stereo not given) | > 26 µM (inactive) |
| N=c1ccn(Cc2ccc(Cl)cc2Cl)cc1 | > 26 µM (inactive) |
| COc1ccc(Cc2nnc(N/N=C/c3ccc(O)cc3)[nH]c2=O)cc1OC | > 26 µM (inactive) |
| CCOC(=O)COc1ccc2ccccc2c1/C=C/[N+](=O)[O-] | > 26 µM (inactive) |
| CC(C)(C)c1cnnn1-c1ccc(/C=N/Nc2ccc([N+](=O)[O-])cc2)cc1 | > 26 µM (inactive) |
| COc1ccc(O)c(/C=N/NC(=O)c2ccc(OCc3cccc(Br)c3)cc2)c1 | > 26 µM (inactive) |
| Cc1cccc(NC(=O)c2nc(S(=O)(=O)Cc3ccccc3)ncc2Cl)c1 | > 26 µM (inactive) |
| CCCCS(=O)(=O)/C=C\C=C/S(=O)(=O)CCCC | > 26 µM (inactive) |

| SMILES | AC50 |
| --- | --- |
| COc1ccc(/C=C/C(=O)c2ccncc2)c2ccccc12 | > 26 µM (inactive) |
| O=C(Nc1ccc(-c2nc3ccccc3o2)cc1)c1ccc(N2CCOCC2)c([N+](=O)[O-])c1 | > 26 µM (inactive) |
| CC(C)=CCc1cc2c(=O)c3c(O)c4c(cc3oc2c(O)c1O)OC(C)C4(C)C (stereo not given) | > 26 µM (inactive) |
| O=C(Nc1cc(-c2ccccc2)nn1C1CCCCC1)c1ccc(Cl)cc1 | > 26 µM (inactive) |
| CCCCCN=Cc1c(C)[nH]n(-c2nc3ccccc3s2)c1=O | > 26 µM (inactive) |
| N#CC1=C(N)Oc2c(ccc3cccnc23)C1c1ccccc1 (stereo not given) | > 12 µM (inactive) |
| Cc1ccc(S(=O)(=O)/N=C2\C=C(Nc3ccc(O)cc3)C(=O)c3ccccc32)cc1 | > 26 µM (inactive) |
| COc1ccc(C(NC(C)=O)c2ccc3cccnc3c2O)c(OC)c1 (stereo not given) | > 26 µM (inactive) |
| O=C(CSc1nnc(Cn2nnc3ccccc32)o1)N(Cc1ccc(Cl)cc1)c1ccccc1 | > 26 µM (inactive) |
| C=CCn1cc(/C=C/c2cc[n+](C)cc2)c2ccccc21 | > 26 µM (inactive) |
| Cc1cc(C)n(CCC(=O)N/N=C/c2c(O)ccc3ccccc23)n1 | > 26 µM (inactive) |
| CCOCCCNC(=O)c1c[nH]c2cc(OC)ccc2c1=O | > 26 µM (inactive) |
| C#CCOCCOCCOCCNc1nc(N2CCN(C(=O)CCCCCCCCCCNC(=O)Cn3cc(CCCCCN)nn3)CC2)nc(N2CCN(C(=O)CCCCCCCCCCNC(=O)[C@H]([C@@H](C)CC)n3cc(CCCCN=C(N)N)nn3)CC2)n1 | > 26 µM (inactive) |
| O=C(Nc1cc(Sc2ccccn2)cc([N+](=O)[O-])c1)c1cccc(F)c1 | > 26 µM (inactive) |
| NC(=S)N/N=C/c1ccccc1O | > 26 µM (inactive) |
| COc1ccccc1N1CCN(c2ncc(C(=O)N3CCN(c4cccc(Cl)c4)CC3)c3ccccc23)CC1 | > 26 µM (inactive) |
| Cc1ccn2c(Nc3ccccc3C)c(-c3ccccn3)nc2c1 | > 26 µM (inactive) |
| CC(C)(C)n1ncc2c(=O)n(Cc3cccc(Cn4cnc5c(cnn5C(C)(C)C)c4=O)c3F)cnc21 | > 26 µM (inactive) |
| CN(C)S(=O)(=O)c1ccc(Nc2nc(C3CC3)nc3c2nnn3Cc2ccccc2Cl)cc1 | > 26 µM (inactive) |
| CC(=O)Nc1ccc(S(=O)(=O)NC2=C(N3CCN(C)CC3)C(=O)c3ccccc3C2=O)cc1 | > 26 µM (inactive) |
| OC(c1cc(-c2ccc(Cl)cc2)nc2ccccc12)C1CCCCN1 (stereo not given) | > 26 µM (inactive) |
| CCN(C1CCCCC1)S(=O)(=O)c1ccc(S(=O)(=O)NCc2ccncc2)cc1 | > 26 µM (inactive) |

| SMILES | AC50 |
| --- | --- |
| O=C(COC(=O)c1cn(-c2ccccc2)nc1-c1ccccc1)c1cccc([N+](=O)[O-])c1 | > 26 µM (inactive) |
| O=C(NC(c1cccnc1)C(F)(F)F)c1cc(COc2ccc3c(c2)CCCC3)on1 (stereo not given) | > 26 µM (inactive) |
| COc1ccc(C2C(O)C(c3c[nH]c4ccccc34)=NN2C(=O)CCl)cc1 (stereo not given) | > 26 µM (inactive) |
| Nc1ccc(N2CCCCC2)cc1N1CCCCC1 | > 26 µM (inactive) |
| COC1=C(Nc2ccccc2)C(=O)c2ccccc2C1=O | > 26 µM (inactive) |
| O=NN(CCc1ccncc1)c1ccc(OCc2ccccc2)cc1 | > 26 µM (inactive) |
| CCOC(=O)C1CCN(Cc2ccc(O)c3ncccc23)CC1 | > 26 µM (inactive) |
| Cc1cc(Br)cc(/C=N/NC(=O)c2ccc3c(c2)OCO3)c1O | > 26 µM (inactive) |
| CNC(=O)c1sc(N2N=C3/C(=C/c4ccccc4)CCCC3C2c2ccccc2)nc1C (stereo not given) | > 26 µM (inactive) |
| Cc1ccc(C(=O)C[n+]2cc(-c3ccccc3)n3c2CCCCC3)cc1 | > 26 µM (inactive) |
| CC(C)c1cccc(C(C)C)c1OC(=O)[C@H]1OC(C(C)(C)C)=C[C@@H]1c1ccccc1 | > 26 µM (inactive) |
| Cc1cc(/C=N/n2cnnc2)c(C)n1-c1ccc(OCc2ccccc2F)cc1 | > 26 µM (inactive) |
| C=C1C(=O)C=C2CN(C(=O)c3ccccc3)[C@@](Cc3ccc(F)cc3)(C(=O)OC)[C@@H]12 | > 26 µM (inactive) |
| O=C1C(=O)c2ccc(-c3ccccc3)cc2-c2ccccc21 | > 26 µM (inactive) |
| O=C(N/N=C/c1ccc(O)cc1O)c1ccc(NC(=O)C2CCCCC2)cc1 | > 26 µM (inactive) |
| Cn1c(=O)[nH]c(=O)c2c1nc(N1CCN(C(c3ccccc3)c3ccccc3)CC1)n2CCO | > 26 µM (inactive) |
| COC(=O)[C@H](Cc1ccccc1)N(Cc1ccccc1)S(=O)(=O)N(Cc1ccccc1)[C@@H](Cc1ccccc1)C(=O)OC | > 26 µM (inactive) |
| COc1ccc2nc3cc(Cl)ccc3c(Nc3cc(CN4CCCC4)c(O)c(CN4CCCC4)c3)c2n1 | > 26 µM (inactive) |
| O=C1C=C(Nc2ccc(F)cc2)c2ccccc2C1=O | > 26 µM (inactive) |
| COc1ccc(N(C)S(=O)(=O)c2cccc(C(=O)Nc3nc(C)c(C(C)=O)s3)c2)cc1 | > 26 µM (inactive) |
| CCSC1=NCCN1C(=O)C(C)(C)Oc1ccc(Cl)cc1 | > 26 µM (inactive) |
